Experimental data published in US8383608B2, “Imidazolidine compounds as androgen receptor modulators” (Dart Therapeutics LLC, priority 2008, dated 2013).
Read-outs that look alike come from different tables or passages of the source.

Columns and labels:
[1] = Determination of absolute bioavailability (restricted PK profile, oral and intravenous); format: in vivo; conditions: absolute bioavailability (F), male Sprague Dawley rats, oral 10 mg/kg AUC(0-6 h) vs intravenous 3 mg/kg AUC(0-3 h)
Procedure: To screen rapidly imidazolidines derivatives based on their absolute bioavailabity, restricted pharmacokinetic profile with only fours sampling time points after oral and intravenous route is investigated in Sprague Dawley rats as follows: each test compound is dosed orally (10 mg/kg) and intravenously (3 mg/kg) to groups of 3 male Sprague Dawley rats. Oral doses are administered as solution in EtOH/PEG400/H2O (1/79/20; v/v) by esophageal gavage (2 mg/mL; 5 mL/kg) and intravenous dose is given as solution in DMSO/PEG400/H2O (1/65/34; v/v) as a bolus in the tail vein (3 mg/mL; 1 mL/kg). Before oral dosing, animals are deprived of food (water ad libitum) for at least 16 hours before the start of the study and 6 hours after administration.
Blood is collected at the retro-orbital sinus into polypropylene tubes (Li-heparinate) at +4° C. at the following sampling-times: 0.083, 0.25, 1 and 3 h after intravenous injection and 0.25, 1, 3 and 6 hours after oral dosing. Three (3) animals are sampled per time-point; each animal being sampled four times. After centrifugation at 5000 rpm for 10 min at +4° C., plasma is collected into polypropylene tubes and kept frozen at −20° C. pending assays. Plasma samples are assayed by a LC-MS/MS method with a lower limit of quantification of 1 to 10 ng/mL depending on the compound (volume of plasma: 100 μL).
A LC-MS/MS method for quantification in heparinized plasma was developed for each test compound. Sample preparation consists of a precipitation of plasma proteins with methanol and filtration by centrifugation of supernatant on Captiva deep-well 96 0.2 μm filter plates. Water was added to methanol supernatant phase prior to analysis by liquid chromatography (Pursuit 5 C18 20×2.0 mm VARIAN, 2 μL loop, gradient Water/Methanol (90/10 to 0/100) over 1.7 min) with turboionspray tandem mass spectrometry (API4000) in negative mode using multiple reaction monitoring. The method includes 8 standard and 3 quality control levels with lower limit of quantification corresponding to first standard level.
Exposures are determined using a non compartmental model (WinNonLin 2.1) and the absolute bioavailability (F) is calculated as follows: [AUC(0-6 h) oral*3 mg/kg]/AUC(0-3 h) IV 10 mg/kg] and expressed in percentage.

[2] = molecular target: T1, human androgen receptor (hAR) (Homo sapiens, UniProt P10275); assay: Functional response (transactivation) test in HALP2 cells (HeLa stably expressing hAR and ARE-luciferase reporter); format: cell-based; conditions: for Emax: HeLa, read-out: % effect relative to DHT (100%)
T1 construct: expressed in transfected cells
T1 sequence (P10275 1-920): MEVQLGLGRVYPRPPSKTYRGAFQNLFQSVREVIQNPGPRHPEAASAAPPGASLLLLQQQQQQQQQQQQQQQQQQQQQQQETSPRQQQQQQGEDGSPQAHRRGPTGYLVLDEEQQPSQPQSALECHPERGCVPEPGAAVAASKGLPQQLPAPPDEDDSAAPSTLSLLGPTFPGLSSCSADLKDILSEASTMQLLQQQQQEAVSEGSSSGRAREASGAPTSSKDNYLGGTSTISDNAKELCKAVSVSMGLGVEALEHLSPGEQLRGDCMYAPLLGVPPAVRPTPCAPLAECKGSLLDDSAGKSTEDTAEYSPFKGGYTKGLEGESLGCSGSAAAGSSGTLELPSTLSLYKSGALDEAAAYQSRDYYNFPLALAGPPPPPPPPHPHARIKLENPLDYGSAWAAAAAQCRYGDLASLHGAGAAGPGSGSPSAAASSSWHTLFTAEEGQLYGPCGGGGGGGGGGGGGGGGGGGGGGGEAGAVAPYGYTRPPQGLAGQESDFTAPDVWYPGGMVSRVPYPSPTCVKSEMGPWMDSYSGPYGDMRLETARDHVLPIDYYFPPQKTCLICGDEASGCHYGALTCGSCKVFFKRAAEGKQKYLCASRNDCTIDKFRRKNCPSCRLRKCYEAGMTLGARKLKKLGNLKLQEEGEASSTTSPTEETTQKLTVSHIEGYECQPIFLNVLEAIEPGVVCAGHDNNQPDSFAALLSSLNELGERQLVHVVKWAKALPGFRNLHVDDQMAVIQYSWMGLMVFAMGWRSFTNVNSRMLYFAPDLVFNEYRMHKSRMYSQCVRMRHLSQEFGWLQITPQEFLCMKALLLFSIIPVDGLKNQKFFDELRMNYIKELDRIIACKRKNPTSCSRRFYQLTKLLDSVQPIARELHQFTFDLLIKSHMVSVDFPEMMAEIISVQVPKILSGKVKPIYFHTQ
Source text: This test constitutes a method of identifying pure or partial agonists which mimic the effects of natural hormones, such as DHT (dihydrotestosterone) in the present case or, on the other hand, antagonists which inhibit them.
For this transactivation test, plasmids encoding a reporter gene and the human androgen receptor (hAR) are introduced together by transfection into the HeLa cell line. The reporter plasmid contains luciferase cDNA under the control of the AREs contained in the promoter sequences of the probasin gene (3xpbAREminicoll-luciferase/pGL3-puro). The expression of the reporter gene constitutes an indication of the transcriptional activity of hAR. It also encodes a protein allowing the cells expressing it to resist a treatment with puromycin. The plasmid encoding hAR contains the cDNA of hAR under the control of the Cytomegalovirus (CMV) promoter. It also encodes a protein allowing the cells expressing it to resist a treatment with neomycin. The treatment of cells with increasing amounts of potentially agonistic compounds will increase the expression of the reporter gene. To detect antagonists, on the other hand, increasing doses of test compounds are tested in the presence of […] of DHT. The expression of the reporter gene, which is constant for each dose of DHT, decreases when the concentration of the test compounds increases.
The functional response test is conducted on 96-well plates. The HALP2 cells are seeded (20,000 cells per well) in culture medium (DMEM with phenol red, 1% de Pen-Strep, 1% of non-essential amino acids, 10% of fetal bovine serum, 400 μg/mL Geneticin and 0.150 puromycin) on day 1. After 24 hours incubating at 37° C., 5% CO2, high humidity (day 2) the medium is removed and refreshed with test medium (DMEM without phenol red supplemented, 1% de Pen-Strep, 1% of non-essential amino acids and 5% of desteroidised foetal bovine serum). After another 24 hours incubating at 37° C., 5% CO2, high humidity (day 3), the medium is renewed once more before the phase of stimulation.
The cells are placed in contact with the compounds for 24 hours at 37° C., 5% CO2, high humidity. On day 4 the medium is then removed and the luciferase activity reading reagent is placed in contact with the cells in accordance with the manufacturer's instructions (SteadyLite, Perkin-Elmer). The luminescence produced is detected on an Envision reader (Perkin-Elmer). […]
The determination of the relative agonism/antagonism of a compound is obtained by comparing the maximal activation obtained with said compound and the activation obtained with DHT alone (100%).

[3] = system: castrated immature young rats; assay: Adapted model of Hershberger's test; format: in vivo, Sprague Dawley rats; conditions: Rattus norvegicus, po, 96 h, ORX control = 0%, SHAM control = 100%, per os daily for 4 days, dose tested 30 mg/kg
[4] = male, Sprague-Dawley, rat, plasma, po, 10 mg/kg, read-out: Bioavailability
[5] = maximal activation by the compound compared with DHT alone (100%), HALP2 cells
[6] = agonism: concentration inducing 50% of the maximum agonistic effect of the tested compound, HALP2 cells, 24 hours, read-out: EC50
[7] = levator ani weight, read-out: Anabolic activity %
[8] = ventral prostate weight, read-out: Androgenic activity % (Prostate)

CCC(O)C1(c2ccccc2)C(=O)N(c2ccc(C#N)c(C(F)(F)F)c2)C(=O)N1C (single isomer, unassigned) [Example 3, 4-[2,5-Dioxo-4-(1-hydroxypropyl)-3-methyl-4-phenylimidazolidin-1-yl]-2-trifluoromethylbenzonitrile]
bioavailability [1, 4]: 50 to 90%

CC(O)C1(c2ccccc2)C(=O)N(c2ccc(C#N)c(C(F)(F)F)c2)C(=O)N1C (single isomer, unassigned) [Example 4, 4-[2,5-Dioxo-4-(1-hydroxyethyl)-3-methyl-4-phenylimidazolidin-1-yl]-2-trifluoromethylbenzonitrile]
Emax [2, 5]: 0 to 5% | bioavailability [1]: # (0-49%)

CC(O)C1(c2ccccc2)C(=O)N(c2ccc(C#N)c(C(F)(F)F)c2)C(=O)N1C (single isomer, unassigned) [Example 5, 4-[2,5-Dioxo-4-(1-hydroxyethyl)-3-methyl-4-phenylimidazolidin-1-yl]-2-trifluoromethylbenzonitrile]
% effect relative to DHT (100%) [2, 5]: § (0-5%) | bioavailability [1]: ### (>90%:)

CN1C(=O)N(c2ccc(C#N)c(C(F)(F)F)c2)C(=O)C1(CO)c1ccccc1 (stereo not shown) [Example 1, 4-[2,5-Dioxo-4-(hydroxymethyl)-3-methyl-4-phenylimidazolidin-1-yl]-2-trifluoromethylbenzonitrile]
Emax [2, 5]: 21 to 40% | EC50 [2, 6]: 0.01 to 10 nM | bioavailability [1, 4]: 50 to 90%

CN1C(=O)N(c2ccc(C#N)c(C(F)(F)F)c2)C(=O)C1(CO)c1ccc(F)cc1 (stereo not shown) [Example 6, 4-[2,5-Dioxo-4-(4-fluorophenyl)-4-(hydroxymethyl)-3-methylimidazolidin-1-yl]-2-trifluoromethylbenzonitrile]
Emax [2, 5]: 21 to 40% | EC50 [2, 6]: 11 to 100 nM | bioavailability [1, 4]: 50 to 90% | response vs control in vivo at 30 mg/kg [3, 7]: 25 to 50% | response vs control in vivo at 30 mg/kg [3, 8]: 0.5 to 25%

C#CCN1C(=O)N(c2ccc(C#N)c(C(F)(F)F)c2)C(=O)C1(CO)c1ccc(F)cc1 (stereo not shown) [Example 8, 4-[2,5-Dioxo-4-(4-fluorophenyl)-4-hydroxymethyl-3-(2-propynyl)imidazolidin-1-yl]-2-trifluoromethylbenzonitrile]
EC50 [2]: 101 to 500 nM | Emax [2]: 6 to 20% | bioavailability [1, 4]: > 90%

CN1C(=O)N(c2ccc(C#N)c(C(F)(F)F)c2)C(=O)[C@]1(CO)c1ccccc1 [Example 11, (R)-4-[2,5-Dioxo-4-(hydroxymethyl)-3-methyl-4-phenylimidazolidin-1-yl]-2-trifluoromethylbenzonitrile]
Emax [2, 5]: 0 to 5% | response vs control in vivo at 30 mg/kg [3, 7]: 50 to 75% | response vs control in vivo at 30 mg/kg [3, 8]: 0.5 to 25%
